From patent publication US10538487B2, “Sulfonylureas and related compounds and use of same” (priority 2015, dated 2020)
pIC50: −log10 of the molar value. Read-outs that look alike come from different tables or passages of the source.

Experiments:
NLRP3 inflammasome [1] = molecular target: NLRP3 inflammasome (Mus musculus, UniProt Q8R4B8); test: Inhibition of IL-1β release, NLRP3 inflammasome activation assay in BMDM; format: cell-based
Description: The following assays can be used to determine inhibitory activity of test compounds on the NLRP3 inflammasome using common stimuli such as adenosine triphosphate, nigericin, LeuLeu-OMe or monosodium urate crystals (MSU).
Mouse bone marrow-derived macrophages (BMDM) were derived from bone marrow progenitors isolated from the femurs and tibias of C57BL/6 mice.
BMDM are seeded at 1×10^5/ml. The following day the overnight medium is replaced and cells are stimulated with Ultrapure lipopolysaccharide from Escherichia coli K12 strain (InvivoGen) for 3 h. Medium is removed and replaced with serum free medium (SFM) containing test compound 30 min prior to NLRP3 stimulation. […] ATP can be sourced from Sigma Aldrich, nigericin and MSU from Invivogen and LeuLeu-Ome from Chem-Impex International.
For ELISA and cell death assays cells are seeded in 96 well plates. Supernatants are removed and analysed using ELISA kits according to the manufacturer's instructions (DuoSet® R&D Systems, ReadySetGo!® eBioscience, BD OptEIA™, or Perkin Elmer AlphaLISA®). Cell death is assessed by measurement of LDH release relative to a 100% cell lysis control using the CytoTox96® non-radioactive cytotoxicity assay (Promega).

NLRP3 inflammasome [2] = molecular target: NLRP3 inflammasome (Homo sapiens, UniProt Q96P20); test: Inhibition of IL-1β release, NLRP3 inflammasome activation assay in HMDM; format: cell-based; conditions: inhibition of IL-1β release, read-out: Avg. IL-1β IC50 HMDM
Method in brief: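 Primary human monocyte-derived macrophages from CD14+ buffy-coat monocytes, seeded at 1×10^5/ml. Compound added in serum-free medium 30 min before NLRP3 stimulation (ATP, nigericin, LeuLeu-OMe or MSU). Cytokine in supernatants measured by ELISA or AlphaLISA; cell death by LDH release relative to full lysis.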

[3] = inhibition of IL-1β release, class symbols, read-out: Avg. IL-1β IC50 Murine BMDM
[4] = inhibition of IL-1β release, numeric bounds, read-out: Avg. IL-1β IC50 Murine BMDM
[5] = select compounds of the first aspect (Table 10), read-out: BMDM IC50 vs NLRP3

Sequence of NLRP3 inflammasome (Homo sapiens, UniProt Q96P20) (Q96P20 whole entry): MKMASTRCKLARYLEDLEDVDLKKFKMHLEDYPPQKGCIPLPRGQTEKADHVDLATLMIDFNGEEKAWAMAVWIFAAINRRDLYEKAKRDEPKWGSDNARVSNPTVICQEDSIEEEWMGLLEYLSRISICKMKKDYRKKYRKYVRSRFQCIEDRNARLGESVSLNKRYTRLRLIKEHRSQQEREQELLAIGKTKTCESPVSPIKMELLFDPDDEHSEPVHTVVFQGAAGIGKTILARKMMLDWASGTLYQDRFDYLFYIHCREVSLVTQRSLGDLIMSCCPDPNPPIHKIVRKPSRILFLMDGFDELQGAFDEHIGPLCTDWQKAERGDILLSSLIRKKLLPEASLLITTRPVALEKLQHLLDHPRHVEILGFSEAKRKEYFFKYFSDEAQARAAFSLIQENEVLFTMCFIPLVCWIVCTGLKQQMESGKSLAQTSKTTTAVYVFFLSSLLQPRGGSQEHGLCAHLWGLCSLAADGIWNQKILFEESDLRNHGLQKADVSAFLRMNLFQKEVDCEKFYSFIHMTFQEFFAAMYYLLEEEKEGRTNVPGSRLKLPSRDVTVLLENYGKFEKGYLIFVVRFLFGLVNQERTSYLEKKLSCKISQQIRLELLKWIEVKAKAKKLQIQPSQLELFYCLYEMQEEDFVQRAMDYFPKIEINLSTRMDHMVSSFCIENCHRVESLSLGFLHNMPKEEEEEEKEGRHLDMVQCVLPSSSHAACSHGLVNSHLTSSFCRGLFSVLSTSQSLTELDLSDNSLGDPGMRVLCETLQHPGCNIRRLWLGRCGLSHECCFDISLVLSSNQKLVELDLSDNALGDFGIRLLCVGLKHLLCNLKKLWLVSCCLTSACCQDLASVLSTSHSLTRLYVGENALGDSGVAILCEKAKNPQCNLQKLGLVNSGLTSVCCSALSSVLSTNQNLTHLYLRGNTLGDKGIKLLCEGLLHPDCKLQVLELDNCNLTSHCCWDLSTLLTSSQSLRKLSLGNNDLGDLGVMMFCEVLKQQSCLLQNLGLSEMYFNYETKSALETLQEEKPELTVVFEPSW
Sequence of NLRP3 inflammasome (Mus musculus, UniProt Q8R4B8) (Q8R4B8 whole entry): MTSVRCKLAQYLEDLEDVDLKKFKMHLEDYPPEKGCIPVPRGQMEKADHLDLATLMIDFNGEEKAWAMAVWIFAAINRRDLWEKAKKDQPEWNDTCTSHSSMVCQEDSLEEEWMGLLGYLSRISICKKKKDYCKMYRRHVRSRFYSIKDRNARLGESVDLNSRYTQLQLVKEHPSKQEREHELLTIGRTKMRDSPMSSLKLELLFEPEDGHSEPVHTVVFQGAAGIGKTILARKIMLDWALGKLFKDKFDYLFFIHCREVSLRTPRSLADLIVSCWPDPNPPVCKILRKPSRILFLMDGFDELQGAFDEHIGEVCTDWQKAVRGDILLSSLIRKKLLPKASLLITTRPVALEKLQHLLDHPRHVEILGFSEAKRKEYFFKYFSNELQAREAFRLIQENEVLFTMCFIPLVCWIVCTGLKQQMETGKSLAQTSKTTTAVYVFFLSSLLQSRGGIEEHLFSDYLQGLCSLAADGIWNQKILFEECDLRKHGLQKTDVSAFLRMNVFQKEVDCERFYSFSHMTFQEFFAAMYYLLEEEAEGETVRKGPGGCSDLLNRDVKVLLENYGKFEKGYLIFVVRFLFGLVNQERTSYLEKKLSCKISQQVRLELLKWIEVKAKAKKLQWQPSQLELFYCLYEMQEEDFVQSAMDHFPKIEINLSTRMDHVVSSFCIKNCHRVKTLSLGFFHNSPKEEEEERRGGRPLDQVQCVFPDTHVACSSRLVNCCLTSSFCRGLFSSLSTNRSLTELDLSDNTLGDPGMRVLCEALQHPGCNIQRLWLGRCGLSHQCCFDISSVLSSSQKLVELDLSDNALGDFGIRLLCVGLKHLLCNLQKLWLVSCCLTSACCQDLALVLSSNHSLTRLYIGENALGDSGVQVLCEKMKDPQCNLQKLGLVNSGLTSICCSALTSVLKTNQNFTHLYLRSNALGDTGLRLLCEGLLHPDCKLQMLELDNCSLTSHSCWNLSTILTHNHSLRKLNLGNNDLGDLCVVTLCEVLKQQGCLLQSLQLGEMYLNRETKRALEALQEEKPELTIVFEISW

Row | Structure (SMILES) | pIC50 (NLRP3 inflammasome [1]; [3]) | also measured
1 | COc1ccc(Cl)cc1C(=O)NCCc1ccc(S(=O)(=O)NC(=O)Nc2c3c(cc4c2CCC4)CCC3)cc1 | > 6.00 | pIC50 (NLRP3 inflammasome [2]; class symbols): > 6.00
2 | CCC1=C(C)CN(C(=O)NCCc2ccc(S(=O)(=O)NC(=O)Nc3c4c(cc5c3CCC5)CCC4)cc2)C1=O [3-Ethyl-N-(4-(N-((1,2,3,5,6,7-hexahydro-s-indacen-4-yl)carbamoyl)sulfamoyl)phenethyl)-4-methyl-2-oxo-2,5-dihydro-1H-pyrrole-1-carboxamide] | > 6.00 | pIC50 (NLRP3 inflammasome [2]; class symbols): > 6.00
3 | COc1ccc2c(c1)C(=O)N(CCc1ccc(S(N)(=O)=O)cc1)C(=O)C2(C)C [4-(2-(7-methoxy-4,4-dimethyl-1,3-dioxo-3,4-dihydroisoquinolin-2(1H)-yl)ethyl)benzenesulfonamide, reference compound] | – | pIC50 (NLRP3 inflammasome [1]; [4]): < 5.00; pIC50 (NLRP3 inflammasome [2]; numeric bounds): < 3.70
4 | COc1ccc2c(c1NC(=O)NS(=O)(=O)c1cc(C(C)(C)O)co1)CCC2 [4-(2-hydroxypropan-2-yl)-N-((5-methoxy-2,3-dihydro-1H-inden-4-yl)carbamoyl)furan-2-sulfonamide] | > 6.00 | pIC50 (NLRP3 inflammasome [2]; class symbols): > 6.00
5 | Cc1c2c(c(NC(=O)NS(=O)(=O)c3cc(C(C)(C)O)co3)c3c1CCC3)CCC2 [4-(2-hydroxypropan-2-yl)-N-((8-methyl-1,2,3,5,6,7-hexahydro-s-indacen-4-yl)carbamoyl)furan-2-sulfonamide] | > 7.00 | pIC50 (NLRP3 inflammasome [2]; class symbols): > 7.00
6 | COc1ccc2cc(S(=O)(=O)NC(=O)Nc3c(C(C)C)cc(Cl)cc3C(C)C)ccc2c1 [N-((4-chloro-2,6-diisopropylphenyl)carbamoyl)-6-methoxynaphthalene-2-sulfonamide] | > 7.00 | –
7 | CC(C)c1cc(Cl)cc(C(C)C)c1NC(=O)NS(=O)(=O)c1cccc2nccnc12 [N-((4-chloro-2,6-diisopropylphenyl)carbamoyl)quinoxaline-5-sulfonamide] | > 7.00 | –
8 | CC(C)c1cc(Cl)cc(C(C)C)c1NC(=O)NS(=O)(=O)c1cnc2ccsc2c1 [N-((4-chloro-2,6-diisopropylphenyl)carbamoyl)thieno[3,2-b]pyridine-6-sulfonamide] | > 6.00 | –
9 | Cc1cc(Cl)cc(C)c1NC(=O)NS(=O)(=O)c1cc(C(C)(C)O)co1 [N-((4-chloro-2,6-dimethylphenyl)carbamoyl)-4-(2-hydroxypropan-2-yl)furan-2-sulfonamide] | > 5.00 | –
10 | COc1cc(Cl)cc(C(F)(F)F)c1NC(=O)NS(=O)(=O)c1ccn(C(C)C)n1 [N-((4-chloro-2-methoxy-6-(trifluoromethyl)phenyl)carbamoyl)-1-isopropyl-1H-pyrazole-3-sulfonamide] | – | pIC50 (NLRP3 inflammasome [1]; [4]): < 5.00
11 | Cc1cc(Cl)cc(C(F)(F)F)c1NC(=O)NS(=O)(=O)c1cc(C(C)(C)O)co1 [N-((4-chloro-2-methyl-6-(trifluoromethyl)phenyl)carbamoyl)-4-(2-hydroxypropan-2-yl)furan-2-sulfonamide] | – | pIC50 (NLRP3 inflammasome [1]; [4]): < 5.00
12 | CC(C)(O)c1coc(S(=O)(=O)NC(=O)Nc2c(C3CC3)cc(Cl)c3c2CCC3)c1 [N-((7-chloro-5-cyclopropyl-2,3-dihydro-1H-inden-4-yl)carbamoyl)-4-(2-hydroxypropan-2-yl)furan-2-sulfonamide] | > 7.00 | –
13 | CC(C)(O)c1coc(S(=O)(=O)NC(=O)Nc2c3ccccc3cc3ccccc23)c1 [N-(anthracen-9-ylcarbamoyl)-4-(2-hydroxypropan-2-yl)furan-2-sulfonamide] | > 5.00 | –
14 | CC(C)(O)c1coc(S(=O)(=O)NC(=O)Nc2c3ccoc3cc3ccoc23)c1 [N-(benzo[1,2-b:4,5-b′]difuran-4-ylcarbamoyl)-4-(2-hydroxypropan-2-yl)furan-2-sulfonamide] | > 7.00 | –
15 | Cc1cnc(C(=O)NCCc2ccc(S(=O)(=O)NC(=O)Nc3c4c(cc5c3CCC5)CCC4)cc2)cn1 [drawing 359] | – | pIC50 (NLRP3 inflammasome [1]; [5]): 6.49
16 | O=C(Nc1c2c(cc3c1CCC3)CCC2)NS(=O)(=O)c1ccc([N+](=O)[O-])cc1 [drawing 368] | – | pIC50 (NLRP3 inflammasome [1]; [5]): 7.37
17 | CCOC(=O)c1coc(S(=O)(=O)NC(=O)Nc2c3c(cc4c2CCC4)CCC3)c1 [ethyl 5-(N-((1,2,3,5,6,7-hexahydro-s-indacen-4-yl)carbamoyl)sulfamoyl)furan-3-carboxylate] | > 6.00 | –
